Measurements: patent US20260317324A1, “BIFUNCTIONAL COMPOUNDS FOR DEGRADING BRAF VIA UBIQUITIN PROTEOSOME PATHWAY” (Nurix Therapeutics, Inc., priority 2023, published 2026)

Tests used:
Format in all cases: cell-based
BRAF D594G = biological target: T1, BRAF D594G (Homo sapiens, UniProt P15056, D594G); assay: BRAF HiBiT degradation assay, C-terminal HiBiT-tagged BRAF D594G overexpressed in HCT-116 BRAF−/− cells (clone 63), Nano-Glo HiBiT Lytic assay
T1 construct: Horizon Discovery (HCT-116 BRAF−/− cells); host or cells: HCT-116 BRAF−/− cells, clone 63, lentiviral transduction
T1 sequence (P15056 whole entry D594G): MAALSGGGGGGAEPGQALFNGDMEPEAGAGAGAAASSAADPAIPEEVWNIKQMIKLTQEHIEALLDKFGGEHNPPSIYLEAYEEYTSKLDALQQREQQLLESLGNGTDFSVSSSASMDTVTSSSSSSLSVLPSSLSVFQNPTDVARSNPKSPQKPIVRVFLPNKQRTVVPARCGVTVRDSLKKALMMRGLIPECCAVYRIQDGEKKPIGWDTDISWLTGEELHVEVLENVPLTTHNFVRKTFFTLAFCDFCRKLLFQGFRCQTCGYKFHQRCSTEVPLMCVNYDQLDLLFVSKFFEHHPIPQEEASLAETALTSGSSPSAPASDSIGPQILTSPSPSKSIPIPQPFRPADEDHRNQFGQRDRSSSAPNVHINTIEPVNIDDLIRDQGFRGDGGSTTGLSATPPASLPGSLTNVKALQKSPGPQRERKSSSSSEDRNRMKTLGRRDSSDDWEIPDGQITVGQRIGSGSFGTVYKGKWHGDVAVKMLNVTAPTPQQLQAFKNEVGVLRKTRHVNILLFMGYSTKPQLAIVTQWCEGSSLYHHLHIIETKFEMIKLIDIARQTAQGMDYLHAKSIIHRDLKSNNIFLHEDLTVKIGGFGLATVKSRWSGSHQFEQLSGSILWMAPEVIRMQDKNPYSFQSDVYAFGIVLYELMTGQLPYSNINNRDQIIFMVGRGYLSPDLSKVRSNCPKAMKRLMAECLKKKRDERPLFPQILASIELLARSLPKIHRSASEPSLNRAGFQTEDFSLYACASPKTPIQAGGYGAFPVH
How it was run: (§1)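 Cells 3,000/well, 24 h at 37 °C; cpds 1 μM–0.01 nM, 11-pt half-log, duplicate, 0.2% DMSO. Readout: HiBiT lytic luminescence, 10 min at RT. Normalized to DMSO-treated tagged cells, with DMSO-treated wild-type HCT-116 as background. DC50 = fitted concentration at Y=50; Obs. Dmax = % degraded at maximal effect.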

BRAF V600E = biological target: T2, BRAF V600E (Homo sapiens, UniProt P15056, V600E); assay: BRAF HiBiT degradation assay, C-terminal HiBiT-tagged BRAF V600E A375 cells (clone 1F10), Nano-Glo HiBiT Lytic assay; conditions: for Dmax: A-375
T2 construct: endogenous C-terminal HiBiT fusion tag on BRAF V600E allele; endogenous in cells; host or cells: A375 clone 1F10 (CRISPR-Cas9 knock-in of the HiBiT tag; parental A375 from ATCC)
T2 sequence (P15056 whole entry V600E, the tested form may be a part): as the sequence (P15056 whole entry D594G) above, with G594D, V600E counted along it
How it was run: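 Luminescence read-out: Nano-Glo HiBiT lytic reagent with LgBiT, 10 min at room temperature. Signal normalised to DMSO-treated tagged cells, with wildtype A375 as background. Cells are endogenously tagged BRAF V600E A375 clone 1F10. Compounds were tested from 1 μM to 0.01 nM; Dmax is observed % degraded at maximal effect.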

BRAF G469A = biological target: T3, BRAF G469A (Homo sapiens, UniProt P15056, G469A); assay: BRAF HiBiT degradation assay, C-terminal HiBiT-tagged BRAF G469A overexpressed in HCT-116 BRAF−/− cells (clone 34), Nano-Glo HiBiT Lytic assay
T3 construct: Horizon Discovery (HCT-116 BRAF−/− cells); host or cells: HCT-116 BRAF−/− cells, clone 34, lentiviral transduction
T3 sequence (P15056 whole entry G469A): as the sequence (P15056 whole entry D594G) above, with G469A, G594D counted along it
How it was run: as §1

BRAF G466V = biological target: T4, BRAF G466V (Homo sapiens, UniProt P15056, G466V); assay: BRAF HiBiT degradation assay, C-terminal HiBiT-tagged BRAF G466V overexpressed in HCT-116 BRAF−/− cells (clone 8), Nano-Glo HiBiT Lytic assay
T4 construct: Horizon Discovery (HCT-116 BRAF−/− cells); host or cells: HCT-116 BRAF−/− cells, clone 8, lentiviral transduction
T4 sequence (P15056 whole entry G466V): as the sequence (P15056 whole entry D594G) above, with G466V, G594D counted along it
How it was run: as §1

[1] = BRAF D594G (Class 3), HCT-116 BRAF−/− cells, DC50 at 50% degradation
[2] = BRAF D594G (Class 3), HCT-116 BRAF−/− cells, observed Dmax relative to DMSO control
[3] = A375 (BRAF V600E, Class 1), DC50 at 50% degradation
[4] = A375 (BRAF V600E, Class 1), observed Dmax, % protein degraded relative to DMSO control
[5] = BRAF G469A (Class 2), HCT-116 BRAF−/− cells, DC50 at 50% degradation
[6] = BRAF G469A (Class 2), HCT-116 BRAF−/− cells, observed Dmax relative to DMSO control
[7] = BRAF G466V (Class 3), HCT-116 BRAF−/− cells, DC50 at 50% degradation
[8] = BRAF G466V (Class 3), HCT-116 BRAF−/− cells, observed Dmax relative to DMSO control
[9] = BRAF D594G, DC50 at 50%: fitted conc. at Y=50
[10] = HCT-116, BRAF D594G, percentage protein degraded at maximal compound effect relative to DMSO
[11] = A375 (BRAF V600E), DC50 at 50%: fitted conc. at Y=50
[12] = A375 (BRAF V600E), percentage protein degraded at maximal compound effect relative to DMSO
[13] = Class 2, BRAF G469A, DC50 at 50%: fitted conc. at Y=50
[14] = HCT-116, Class 2, BRAF G469A, percentage protein degraded at maximal compound effect relative to DMSO
[15] = BRAF G466V, DC50 at 50%: fitted conc. at Y=50
[16] = HCT-116, BRAF G466V, percentage protein degraded at maximal compound effect relative to DMSO

Compound | DC50 (BRAF D594G; [1]) [µM] | Dmax (BRAF D594G; [2]) [%] | DC50 (BRAF V600E; [3]) [µM] | Dmax (BRAF V600E; [4]) [%] | DC50 (BRAF G469A; [5]) [µM] | Dmax (BRAF G469A; [6]) [%] | DC50 (BRAF G466V; [7]) [µM] | Dmax (BRAF G466V; [8]) [%] | DC50 (BRAF D594G; [9]) [µM] | Dmax (BRAF D594G; [10]) [%] | DC50 (BRAF V600E; [11]) [µM] | Dmax (BRAF V600E; [12]) [%] | DC50 (BRAF G469A; [13]) [µM] | Dmax (BRAF G469A; [14]) [%] | DC50 (BRAF G466V; [15]) [µM] | Dmax (BRAF G466V; [16]) [%]
CCCS(=O)(=O)Nc1cccc(-c2nc(C(C)(C)C)sc2-c2ccnc(Nc3ccc(C4CCN(CC5CCN(c6ccc(C(=O)NC7CCC(=O)NC7=O)cc6)CC5)CC4)cc3)n2)c1F (racemic) [Compound 171, Rac-4-{4-[(4-{4-[(4-{2-tert-butyl-4-[2-fluoro-3-(propane-1-sulfonamido)phenyl]-1,3-thiazol-5-yl}pyrimidin-2-yl)amino]phenyl}piperidin-1-yl)methyl]piperidin-1-yl}-N-[(3R)-2,6-dioxopiperidin-3-yl]benzamide] |  |  |  |  |  |  |  |  | > 0.5 | < 30 | 0.05 to 0.5 | 30 to 70 | > 0.5 | < 30 | > 0.5 | < 30
CCCS(=O)(=O)Nc1cccc(-c2nc(C(C)(C)C)sc2-c2ccnc(Nc3cnn(CC4CCN(C(=O)C[C@H]5CCN(c6ccc(C7CCC(=O)NC7=O)cc6)C5)CC4)c3)n2)c1F (mixture of isomers) [Compound 111, N-(3-{2-tert-butyl-5-[2-({1-[(1-{2-[(3R)-1-{4-[(3RS)-2,6-dioxopiperidin-3-yl]phenyl}pyrrolidin-3-yl]acetyl}piperidin-4-yl)methyl]-1H-pyrazol-4-yl}amino)pyrimidin-4-yl]-1,3-thiazol-4-yl}-2-fluorophenyl)propane-1-sulfonamide] |  |  |  |  |  |  |  |  | 0.05 to 0.5 | 30 to 70 | < 0.01 | 30 to 70 | 0.05 to 0.5 | < 30 | 0.05 to 0.5 | < 30
CCCS(=O)(=O)Nc1cccc(-c2nc(C(C)(C)C)sc2-c2ccnc(Nc3ccc(C4CCN(C(=O)C[C@H]5CCN(c6ccc(C7CCC(=O)NC7=O)cc6)C5)CC4)cc3)n2)c1F (mixture of isomers) [Compound 165, N-{3-[2-tert-butyl-5-(2-{[4-(1-{2-[(3R)-1-{4-[(3RS)-2,6-dioxopiperidin-3-yl]phenyl}pyrrolidin-3-yl]acetyl}piperidin-4-yl)phenyl]amino}pyrimidin-4-yl)-1,3-thiazol-4-yl]-2-fluorophenyl}propane-1-sulfonamide] |  |  |  |  |  |  |  |  | > 0.5 | < 30 | 0.01 to 0.05 | 30 to 70 | > 0.5 | < 30 | > 0.5 | < 30
CCCS(=O)(=O)Nc1cccc(-c2nc(C3CCN(C(=O)C4CCN(C(=O)C5CCN(c6ccc(C7CCC(=O)NC7=O)cn6)CC5)CC4)CC3)sc2-c2ccnc(NC)n2)c1F (racemic) [Compound 212, Rac-N-[3-(2-{1-[1-(1-{5-[(3R)-2,6-dioxopiperidin-3-yl]pyridin-2-yl}piperidine-4-carbonyl)piperidine-4-carbonyl]piperidin-4-yl}-5-[2-(methylamino)pyrimidin-4-yl]-1,3-thiazol-4-yl)-2-fluorophenyl]propane-1-sulfonamide] |  |  |  |  |  |  |  |  | < 0.01 | 30 to 70 | < 0.01 | > 70 | 0.01 to 0.05 | 30 to 70 | < 0.01 | 30 to 70
CCCS(=O)(=O)Nc1cccc(-c2nc(C(C)(C)C)sc2-c2ccnc(Nc3ccc(C4CCN(C(=O)CN5CCN(c6cc(C7CCC(=O)NC7=O)ccn6)CC5)CC4)cc3)n2)c1F (racemic) [Compound 174, Rac-N-[3-(2-tert-butyl-5-{2-[(4-{1-[2-(4-{4-[(3R)-2,6-dioxopiperidin-3-yl]pyridin-2-yl}piperazin-1-yl)acetyl]piperidin-4-yl}phenyl)amino]pyrimidin-4-yl}-1,3-thiazol-4-yl)-2-fluorophenyl]propane-1-sulfonamide] |  |  |  |  |  |  |  |  | > 0.5 | < 30 | 0.01 to 0.05 | > 70 | > 0.5 | < 30 | > 0.5 | < 30

Next, values leading:

DC50 (BRAF D594G; [1]) [µM] | Dmax (BRAF D594G; [2]) [%] | DC50 (BRAF V600E; [3]) [µM] | Dmax (BRAF V600E; [4]) [%] | DC50 (BRAF G469A; [5]) [µM] | Dmax (BRAF G469A; [6]) [%] | DC50 (BRAF G466V; [7]) [µM] | Dmax (BRAF G466V; [8]) [%] | DC50 (BRAF D594G; [9]) [µM] | Dmax (BRAF D594G; [10]) [%] | DC50 (BRAF V600E; [11]) [µM] | Dmax (BRAF V600E; [12]) [%] | DC50 (BRAF G469A; [13]) [µM] | Dmax (BRAF G469A; [14]) [%] | DC50 (BRAF G466V; [15]) [µM] | Dmax (BRAF G466V; [16]) [%] | Compound
< 0.01 | 30 to 70 | < 0.01 | > 70 | 0.01 to 0.05 | 30 to 70 | < 0.01 | > 70 |  |  |  |  |  |  |  |  | O=C1CCN(c2ccc(N3CCC(CN4CCN(c5ccc(-n6cc(-c7cc(Cl)cc(NS(=O)(=O)N8CCCC8)c7F)c(-c7ccncc7)n6)cc5)CC4)CC3)nc2)C(=O)N1 [Compound 355, N-[5-chloro-3-(1-{4-[4-({1-[5-(2,4-dioxo-1,3-diazinan-1-yl)pyridin-2-yl]piperidin-4-yl}methyl)piperazin-1-yl]phenyl}-3-(pyridin-4-yl)-1H-pyrazol-4-yl)-2-fluorophenyl]pyrrolidine-1-sulfonamide]
< 0.01 | 30 to 70 | < 0.01 | > 70 | < 0.01 | > 70 | < 0.01 | > 70 |  |  |  |  |  |  |  |  | C[C@@H]1CN(c2ccc(-n3cc(-c4cc(Cl)cc(NS(=O)(=O)N5CC[C@@H](F)C5)c4F)c(-c4ccncc4)n3)cc2)CCN1CC1CCN(c2ccc([C@H]3CCC(=O)NC3=O)cc2)CC1 [Compound 317, (3R)—N-[5-chloro-3-(1-{4-[(3R)-4-[(1-{4-[(3R)-2,6-dioxopiperidin-3-yl]phenyl}piperidin-4-yl)methyl]-3-methylpiperazin-1-yl]phenyl}-3-(pyridin-4-yl)-1H-pyrazol-4-yl)-2-fluorophenyl]-3-fluoropyrrolidine-1-sulfonamide]
 |  |  |  |  |  |  |  | > 0.5 | 30 to 70 | 0.01 to 0.05 | > 70 | > 0.5 | < 30 | > 0.5 | 30 to 70 | CCCS(=O)(=O)Nc1cccc(-c2nc(C3CCN(C(=O)C4CCN(CC5CCN(c6ccc(C7CCC(=O)NC7=O)cn6)CC5)CC4)CC3)sc2-c2ccnc(NC)n2)c1F (racemic) [Compound 217, Rac-N-{3-[2-(1-{1-[(1-{5-[(3R)-2,6-dioxopiperidin-3-yl]pyridin-2-yl}piperidin-4-yl)methyl]piperidine-4-carbonyl}piperidin-4-yl)-5-[2-(methylamino)pyrimidin-4-yl]-1,3-thiazol-4-yl]-2-fluorophenyl}propane-1-sulfonamide]
< 0.01 | > 70 | < 0.01 | > 70 | 0.01 to 0.05 | > 70 | < 0.01 | > 70 |  |  |  |  |  |  |  |  | CCC(C)S(=O)(=O)Nc1cc(Cl)cc(-c2cn(-c3ccc(N4CCN(CC5CCN(c6ccc([C@H]7CCC(=O)NC7=O)cn6)CC5)CC4)cc3)nc2-c2ccncc2)c1F (mixture of isomers) [Compound 327, (RS)—N-(5-chloro-3-(1-(4-(4-((1-(5-((R)-2,6-dioxopiperidin-3-yl)pyridin-2-yl)piperidin-4-yl)methyl)piperazin-1-yl)phenyl)-3-(pyridin-4-yl)-1H-pyrazol-4-yl)-2-fluorophenyl)butane-2-sulfonamide]
 |  |  |  |  |  |  |  | < 0.01 | 30 to 70 | < 0.01 | > 70 | 0.01 to 0.05 | 30 to 70 | 0.01 to 0.05 | 30 to 70 | CCN(C)S(=O)(=O)Nc1cccc(-c2nc(C)sc2-c2ccnc(Nc3ccc(N4CCN(CC5CCN(c6ccc(C7CCC(=O)NC7=O)cn6)CC5)CC4)cn3)n2)c1F (racemic) [Compound 43, Rac-(3S)-3-{6-[4-({4-[6-({4-[4-(3-{[ethyl(methyl)sulfamoyl]amino}-2-fluorophenyl)-2-methyl-1,3-thiazol-5-yl]pyrimidin-2-yl}amino)pyridin-3-yl]piperazin-1-yl}methyl)piperidin-1-yl]pyridin-3-yl}piperidine-2,6-dione]
